US5538975A, “1,3-oxathiolane nucleoside compounds and compositions” (BioChem Pharma, Inc., priority 1991, dated 1996)
Values after ≈ are worked out from the molar mass of the structure shown. Like-named read-outs stand apart in the source and are kept apart here.

Tests used:
HIV-1 strain RF [1] = assay: microbe, parasite or virus in culture; conditions: Human immunodeficiency virus 1, MT4, in Homo sapiens, read-out: 50% Antiviral Activity, Formazan
Procedure: Antiviral activity of the compound of Example 1 was determined against HIV-1 in the following cell lines.
MT-4 cells, a human T-cell leukaemia cell line, infected with HIV-1 strain RF.
Antiviral activity in C8166 cells was determined by inhibition of syncytium formation (Tochikura et al Virology, 164, 542-546) and in MT-4 cells by inhibition of formazan conversion [Baba et al, Biochem Biophys Res Commun., 142, pp. 128-134 (1987); Mossman, J. Immun. Meth., 65, pp. 55-57 (1983)]. Antiviral activities were also determined by analyzing the amount of HIV p24 antigen synthesized in the presence and absence of enantiomers.

in vitro = conditions: human
Procedure: The cytotoxicities of the compounds of Example 1 and the racemic compound (Intermediate 1) were determined in two CD4 cell lines: H9 and CEM.
Compounds for test were serially diluted from 100 μg/ml to 0.3 μg/ml (final concentrations) in 96 well microtitre plates. 3.6×10^4 cells were inoculated into each well of the plates including drug-free controls. After incubation at 37° C. for 5 days, the viable cell count was determined by removing a sample of cell suspension and counting trypan blue excluding cells in a hemocytometer.

HIV-1 strain RF [2] = assay: Antiviral activity, inhibition of syncytium formation in C8166 cells; format: cell-based, HIV-1; C8166 human T-lymphoblastoid cell line
[3] = system: HIV p24 antigen (HIV-1 RF); assay: Inhibition of HIV p24 antigen synthesis in C8166 cells; format: cell-based, HIV-1; C8166 human T-lymphoblastoid cell line
CD4 cell lines = assay: Cytotoxicity of the enantiomers (general statement); format: cell-based; conditions: in words

Row | Structure (SMILES) | IC50 (HIV-1 strain RF [1]) | CC50 at 120 h (in vitro; cem cells) | CC50 at 120 h (in vitro; h9 cells) | IC50 (HIV-1 strain RF [2]; Human immunodeficiency virus 1, C8166, read-out: 50% Antiviral Activity, Inhibition of syncytium formation) | IC50 ([3]; Human immunodeficiency virus 1, C8166, read-out: 50% Inhibition HIV p24 Synthesis) | IC50 (HIV-1 strain RF [2]; Human immunodeficiency virus 1, C8166 cells, HIV-1 RF, read-out: 50% Antiviral Activity, Inhibition of syncytium formation) | IC50 ([3]; Human immunodeficiency virus 1, C8166 cells, virus RF, read-out: 50% Inhibition HIV p24 Synthesis) | cytotoxicity (CD4 cell lines) | activity relative to the (+)-enantiomer (HIV)
1 | Nc1nc(=O)n([C@@H]2CS[C@H](CO)O2)cc1F (relative stereo) [Intermediate 1, (±)-Cis-2-hydroxymethyl-5-(5'-fluorocytosin-1'-yl)1,3-oxathiolane] | 0.065 µg/mL (≈ 0.263 µM) | 173 µg/mL (≈ 700 µM) | 232 µg/mL (≈ 938 µM) | – | – | – | – | – | –
2 | Cc1cn([C@H]2C[C@H](N=[N+]=[N-])[C@@H](CO)O2)c(=O)[nH]c1=O [AZT, 3'-azido-3'-deoxythymidine, reference compound] | – | – | – | 0.0038 µg/mL (≈ 0.0142 µM) | 0.017 µg/mL (≈ 0.0636 µM) | – | – | – | –
3 | Nc1nc(=O)n([C@H]2CS[C@@H](CO)O2)cc1F [(+)-enantiomer, (+)-cis-2-hydroxymethyl-5-(5'-fluorocytosin-1'-yl) -1,3-oxathiolane] | > 1 µg/mL | 217 µg/mL (≈ 878 µM) | 334 µg/mL (≈ 1350 µM) | – | – | 0.04 µg/mL (≈ 0.162 µM) | 0.1 µg/mL (≈ 0.404 µM) | unexpectedly low cytotoxicity | –
4 | Nc1nc(=O)n([C@@H]2CS[C@H](CO)O2)cc1F [(-)-enantiomer, (-)-4-amino-5-fluoro-1-(2-hydroxymethyl-1,3-oxathiolan-5-yl)-(1H)-pyrimidin-2-one] | 0.14 µg/mL (≈ 0.566 µM) | 148 µg/mL (≈ 599 µM) | 296 µg/mL (≈ 1200 µM) | – | – | – | – | unexpectedly low cytotoxicity | much more active than the (+)-enantiomer
